Experimental data reported in patent US5578567A, “Nasal pharmaceutical composition” (Sandoz Ltd., priority 1990, dated 1996).

Assay: bioavailability study, serum [1-38]hPTH by radioimmunoassay
Assay type: in vivo, rhesus monkeys
Conditions: monkeys, nasal administration
Procedure: Compositions of Examples 1A, 6 and 9 are administered nasally to rhesus monkeys (n=5) at a dose of 100 μg/kg [1-38]hPTH. A reference composition comprising
and buffered to pH 5.5 with Na2 HPO4 /citric acid is administered i.v. at a dose of 10 μg/kg.
Blood is taken after 10, 20, 30, 45, 60, 90, 240 and 360 min after administration and stored deep frozen at -80° C. until analysed. [1-38]hPTH concentrations in serum are analysed using radioimmunoassay techniques providing a limit of detection of 0.2-0.1 ng/ml. In addition urine is collected and stored deep frozen at -80° C. until analysis of cAMP by RIA techniques.

In the case of `CC[C@H](C)[C@H](NC(=O)[C@H](CCC(=O)O)NC(=O)[C@H](CO)NC(=O)[C@@H](NC(=O)[C@@H](N)CO)C(C)C)C(=O)N[C@@H](CCC(N)=O)C(=O)N[C@@H](CC(C)C)C(=O)N[C@@H](CCSC)C(=O)N[C@@H](Cc1c[nH]cn1)C(=O)N[C@@H](CC(N)=O)C(=O)N[C@@H](CC(C)C)C(=O)NCC(=O)N[C@@H](CCCCN)C(=O)N[C@@H](Cc1c[nH]cn1)C(=O)N[C@@H](CC(C)C)C(=O)N[C@@H](CC(N)=O)C(=O)N[C@@H](CO)C(=O)N[C@@H](CCSC)C(=O)N[C@@H](CCC(=O)O)C(=O)N[C@@H](CCCNC(=N)N)C(=O)N[C@H](C(=O)N[C@@H](CCC(=O)O)C(=O)N[C@@H](Cc1c[nH]c2ccccc12)C(=O)N[C@@H](CC(C)C)C(=O)N[C@@H](CCCNC(=N)N)C(=O)N[C@@H](CCCCN)C(=O)N[C@@H](CCCCN)C(=O)N[C@@H](CC(C)C)C(=O)N[C@@H](CCC(N)=O)C(=O)N[C@@H](CC(=O)O)C(=O)N[C@H](C(=O)N[C@@H](Cc1c[nH]cn1)C(=O)N[C@@H](CC(N)=O)C(=O)N[C@@H](Cc1ccccc1)C(=O)N[C@H](C(=O)N[C@@H](C)C(=O)N[C@@H](CC(C)C)C(=O)NCC(=O)O)C(C)C)C(C)C)C(C)C` [[1-38]hPTH, hPTH[1-38]], the “serum levels reached, based on serum concentration and cumulative urinary excretion” value is reported as “therapeutic [1-38]hPTH serum levels are achieved”.
